Experimental data: ChEMBL document CHEMBL1201862, “PubChem BioAssay data set” (2004)
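A five-concentration, 48-hour dose response in 96-well plates underlies each endpoint, interpolated linearly between surrounding concentrations. GI50 is the concentration that inhibits growth by half.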 Active and inactive are the calls of the source. No stated cut-off is given here; in the data, active = GI50 up to about 1.1 µM and inactive = higher.

Columns and labels:
Experiment in all cases: NCI tumour cell line growth inhibition, 48 h
HT-29 = test system: HT-29
MOLT-4 = test system: MOLT-4
HCT-116 = test system: HCT-116
CAKI-1 = test system: CAKI-1
HCT-15 = test system: HCT-15
LOX IMVI = test system: LOX IMVI
RXF 631 = test system: RXF 631
DMS-273 = test system: DMS-273
NCI-H522 = test system: NCI-H522
TK-10 = test system: TK-10
SK-MEL-5 = test system: SK-MEL-5
UACC-257 = test system: UACC-257
SK-OV-3 = test system: SK-OV-3
NCI-H226 = test system: NCI-H226
SK-MEL-2 = test system: SK-MEL-2
M19-MEL = test system: M19-MEL
SR = test system: SR
SN12C = test system: SN12C
NCI-H460 = test system: NCI-H460
DLD-1 = test system: DLD-1
SW-620 = test system: SW-620
EKVX = test system: EKVX
SF-268 = test system: SF-268
786-0 = test system: 786-0
UACC-62 = test system: UACC-62
K562 = test system: K562
HOP-18 = test system: HOP-18
OVCAR-5 = test system: OVCAR-5
Malme-3M = test system: Malme-3M
SK-MEL-28 = test system: SK-MEL-28
RXF 393 = test system: RXF 393
OVCAR-8 = test system: OVCAR-8
CCRF-CEM = test system: CCRF-CEM
U-251 = test system: U-251
HL-60 = test system: HL-60
A549 = test system: A549
KM12 = test system: KM12
IGROV-1 = test system: IGROV-1
HCC 2998 = test system: HCC 2998
HOP-92 = test system: HOP-92
HOP-62 = test system: HOP-62
OVCAR-3 = test system: OVCAR-3
KM-20L2 = test system: KM-20L2
COLO 205 = test system: COLO 205
SF-295 = test system: SF-295
SNB-19 = test system: SNB-19
LXFL 529 = test system: LXFL 529
NCI-H23 = test system: NCI-H23
SF-539 = test system: SF-539
ACHN = test system: ACHN
RPMI-8226 = test system: RPMI-8226
DMS-114 = test system: DMS-114
SNB-75 = test system: SNB-75
A498 = test system: A498
M14 = test system: M14
OVCAR-4 = test system: OVCAR-4
SNB-78 = test system: SNB-78
UO-31 = test system: UO-31

O=CC1=CCCN(CCc2c[nH]c3ccccc23)C1
GI50 (HT-29): 56.4 µM (inactive)
GI50 (MOLT-4): 13.2 µM (inactive)
GI50 (HCT-116): 28.2 µM (inactive)
GI50 (CAKI-1): 75.5 µM (inactive)
GI50 (HCT-15): 21.7 µM
GI50 (LOX IMVI): 6.47 µM (inactive)
GI50 (RXF 631): 47 µM (inactive)
GI50 (DMS-273): 46.2 µM (inactive)
GI50 (NCI-H522): 69.3 µM (inactive)
GI50 (TK-10): 76.6 µM (inactive)
GI50 (SK-MEL-5): 62.8 µM (inactive)
GI50 (UACC-257): 63.8 µM (inactive)
GI50 (SK-OV-3): 86.5 µM (inactive)
GI50 (NCI-H226): 46.3 µM (inactive)
GI50 (SK-MEL-2): 63.5 µM (inactive)
GI50 (M19-MEL): 72.8 µM (inactive)
GI50 (SR): 11.8 µM (inactive)
GI50 (SN12C): 46.2 µM (inactive)
GI50 (NCI-H460): 54.6 µM (inactive)
GI50 (DLD-1): 53.5 µM (inactive)
GI50 (SW-620): 17.6 µM (inactive)
GI50 (EKVX): 84.7 µM (inactive)
GI50 (SF-268): 68.2 µM (inactive)
GI50 (786-0): 62.2 µM (inactive)
GI50 (UACC-62): 58.3 µM (inactive)
GI50 (K562): 23.6 µM (inactive)
GI50 (HOP-18): 57.3 µM (inactive)
GI50 (OVCAR-5): 71.3 µM (inactive)
GI50 (Malme-3M): 64.7 µM (inactive)
GI50 (SK-MEL-28): 11.9 µM (inactive)
GI50 (RXF 393): 30.5 µM (inactive)
GI50 (OVCAR-8): 48.5 µM (inactive)
GI50 (CCRF-CEM): 23.4 µM (inactive)
GI50 (U-251): 52.5 µM (inactive)
GI50 (HL-60): 11.2 µM (inactive)
GI50 (A549): 186 µM (inactive)
GI50 (KM12): 56.9 µM (inactive)
GI50 (IGROV-1): 86.5 µM (inactive)
GI50 (HCC 2998): 71.6 µM (inactive)
GI50 (HOP-92): 64.9 µM (inactive)
GI50 (HOP-62): 52.6 µM (inactive)
GI50 (OVCAR-3): 42.6 µM (inactive)
GI50 (KM-20L2): 65.8 µM (inactive)
GI50 (COLO 205): 77.6 µM (inactive)
GI50 (SF-295): 57.3 µM (inactive)
GI50 (SNB-19): 45.2 µM (inactive)
GI50 (LXFL 529): 11.2 µM (inactive)
GI50 (NCI-H23): 47.6 µM (inactive)
GI50 (SF-539): 54 µM (inactive)
GI50 (ACHN): 70.6 µM (inactive)
GI50 (RPMI-8226): 37.2 µM (inactive)
GI50 (DMS-114): 40.6 µM (inactive)

Cc1cc(Br)cc(C)c1NC(=O)C(=O)CC(=O)c1sc(-n2nc(-c3ccccc3)cc2-c2ccccc2)nc1C
GI50 (HT-29): > 100 µM (inactive)
GI50 (MOLT-4): > 100 µM (inactive)
GI50 (HCT-116): > 100 µM (inactive)
GI50 (CAKI-1): > 100 µM (inactive)
GI50 (HCT-15): > 100 µM
GI50 (LOX IMVI): > 100 µM (inactive)
GI50 (SNB-75): 49.9 µM (inactive)
GI50 (A498): > 100 µM (inactive)
GI50 (RXF 631): > 100 µM (inactive)
GI50 (DMS-273): > 100 µM (inactive)
GI50 (NCI-H522): > 100 µM (inactive)
GI50 (TK-10): > 100 µM (inactive)
GI50 (UACC-257): > 100 µM (inactive)
GI50 (SK-OV-3): > 100 µM (inactive)
GI50 (M14): > 100 µM (inactive)
GI50 (NCI-H226): > 100 µM (inactive)
GI50 (M19-MEL): > 100 µM (inactive)
GI50 (OVCAR-4): > 100 µM (inactive)
GI50 (SR): > 100 µM (inactive)
GI50 (SNB-78): > 100 µM (inactive)
GI50 (SN12C): > 100 µM (inactive)
GI50 (NCI-H460): > 100 µM (inactive)
GI50 (DLD-1): > 100 µM (inactive)
GI50 (SW-620): > 100 µM (inactive)
GI50 (EKVX): > 100 µM (inactive)
GI50 (SF-268): > 100 µM (inactive)
GI50 (786-0): > 100 µM (inactive)
GI50 (UACC-62): > 100 µM (inactive)
GI50 (K562): > 100 µM (inactive)
GI50 (HOP-18): > 100 µM (inactive)
GI50 (OVCAR-5): > 100 µM (inactive)
GI50 (Malme-3M): > 100 µM (inactive)
GI50 (SK-MEL-28): > 100 µM (inactive)
GI50 (RXF 393): > 100 µM (inactive)
GI50 (OVCAR-8): > 100 µM (inactive)
GI50 (CCRF-CEM): > 100 µM (inactive)
GI50 (U-251): > 100 µM (inactive)
GI50 (HL-60): > 100 µM (inactive)
GI50 (A549): > 100 µM (inactive)
GI50 (KM12): > 100 µM (inactive)
GI50 (IGROV-1): > 100 µM (inactive)
GI50 (HCC 2998): > 100 µM (inactive)
GI50 (HOP-92): > 100 µM (inactive)
GI50 (HOP-62): > 100 µM (inactive)
GI50 (OVCAR-3): > 100 µM (inactive)
GI50 (KM-20L2): > 100 µM (inactive)
GI50 (COLO 205): > 100 µM (inactive)
GI50 (SF-295): > 100 µM (inactive)
GI50 (SNB-19): > 100 µM (inactive)
GI50 (LXFL 529): > 100 µM (inactive)
GI50 (NCI-H23): > 100 µM (inactive)
GI50 (ACHN): > 100 µM (inactive)
GI50 (RPMI-8226): > 100 µM (inactive)
GI50 (UO-31): > 100 µM (inactive)
GI50 (DMS-114): > 100 µM (inactive)
